Assay results from patent US11939362B2, “Light-inducible protein aggregation system for modeling proteinopathies and neurodegenerative disorders” (UNIVERSITÉ LAVAL, priority 2018, dated 2024).

Columns and labels:
LIPA-α-syn aggregates = assay: Stability of LIPA-α-syn inclusions after light stimulation (proportion of mCherry-positive cells with inclusions); format: cell-based, human; conditions: for reduction in the number of cells exhibiting stable LIPA-α-syn inclusions / effect on the proportion of cells with mCherry inclusions: HEK-293T cells overexpressing LIPA-α-syn; for reduction in the number of cells exhibiting stable LIPA-α-syn inclusions: 12 h pre-exposure to blue light, treatment with small molecule inhibitor, FIG. 16, n=5; for effect on the proportion of cells with mCherry inclusions: treatment with inactive small molecules, FIG. 18, n=5
Description: HEK-293T cells were seeded on 0.1% gelatin-coated glass coverslips in 24-well plates at a density of 10^4 cells per well (50% confluence) and transiently transfected, 24 h later, with 0.5 μg of LIPA-Empty, 0.6 μg LIPA-α-syn, and 1 μg LIPA-α-syn^ΔNAC per 4 wells, to obtain similar protein expression levels in all conditions. 24 h post-transfection, cells were exposed to blue light (λ=456 nm) using UHP-T-DI-LED series Ultra High-Power LEDs (Prizmatix), at an intensity of 0.8 mW/cm^2, as measured using LPM-100 light power meter (Amuza). Cells were collected at different time points and fixed in 4% paraformaldehyde for 15 min at room temperature (RT), then washed three times (5 min) with PBS and permeabilized with PBS containing 0.25% Triton X-100, for 30 min at RT. Cells were incubated in blocking buffer solution (PBS containing 5% BSA and 0.1% Triton X-100), for 1 h at RT. Coverslips were incubated with primary antibodies (see Table 1) diluted in blocking buffer solution for 2 h at RT. Coverslips were washed three times in blocking buffer solution (10 min) and appropriate Alexa Fluor® secondary antibodies (Life Technologies, see Table 1) were applied for 1 h at RT. Coverslips were washed twice with PBS (10 min) and counterstained with the fluorescent nuclear stain […] 4,6-diamidino-2-phenylindole (DAPI) (1:5000) for 5 min. Coverslips were then washed twice with PBS (10 min), mounted on Prolong® Gold Antifade (Molecular Probes), and imaged using a Zeiss LSM800 confocal microscope. For thioflavin S (ThS) staining, fixed and permeabilized cells were incubated with 0.05% ThS for 15 min, washed three times with 70% ethanol for 10 min, and then cells were directly counterstained with DAPI. All immunocytochemistry experiments were made with gentle rocking and protected from light.
(§1) To evaluate the number of mCherry-positive cells with aggregates, a total of 8-10 images per condition were collected using a fluorescence microscope (Nikon Eclipse 80i; 20× objective) and a total of 220-250 cells were quantified by two experimenters, in a blind manner, using ImageJ.
The stability of LIPA-α-syn inclusions in the absence of light stimulation was evaluated by assessing the proportion of mCherry-positive cells having inclusions. LIPA aggregates were allowed to form over a 12 h period under light stimulation and cells were collected at different time points up to 48 h post-illumination (FIG. 14).
The impact of treatment with potent small molecule inhibitors of α-syn aggregation, namely baicalein and myrecitin (Masuda et al., 2006; Zhu et al., 2004), on the stability of LIPA-α-syn inclusions was next evaluated. […] Treatment with baicalein or myrecitin had no effect on LIPA-Empty dissociation, confirming the specificity of these inhibitors (FIG. 17).
Previous studies have reported that both β-synuclein (β-syn) and mouse α-syn (ma-syn) overexpression inhibit human α-syn aggregation in cell culture and animal models. To test the impact of these two proteins on LIPA-α-syn inclusion formation, LIPA-α-syn was overexpressed with β-syn or ma-syn in HEK-293T cells, then transiently exposed to blue light for 12 h.

LIPA-Empty aggregates = molecular target: T1, LIPA-Empty aggregates (Arabidopsis thaliana, UniProt Q96524, E490G); assay: Stability/dissociation of LIPA-Empty inclusions after light stimulation (proportion of mCherry-positive cells with inclusions); format: cell-based, human; conditions: HEK-293T cells overexpressing LIPA-Empty, 12 h pre-exposure to blue light, FIG. 17, n=5
T1 construct: expressed in transfected cells; host or cells: HEK-293T
T1 sequence (Q96524 1-498 E490G): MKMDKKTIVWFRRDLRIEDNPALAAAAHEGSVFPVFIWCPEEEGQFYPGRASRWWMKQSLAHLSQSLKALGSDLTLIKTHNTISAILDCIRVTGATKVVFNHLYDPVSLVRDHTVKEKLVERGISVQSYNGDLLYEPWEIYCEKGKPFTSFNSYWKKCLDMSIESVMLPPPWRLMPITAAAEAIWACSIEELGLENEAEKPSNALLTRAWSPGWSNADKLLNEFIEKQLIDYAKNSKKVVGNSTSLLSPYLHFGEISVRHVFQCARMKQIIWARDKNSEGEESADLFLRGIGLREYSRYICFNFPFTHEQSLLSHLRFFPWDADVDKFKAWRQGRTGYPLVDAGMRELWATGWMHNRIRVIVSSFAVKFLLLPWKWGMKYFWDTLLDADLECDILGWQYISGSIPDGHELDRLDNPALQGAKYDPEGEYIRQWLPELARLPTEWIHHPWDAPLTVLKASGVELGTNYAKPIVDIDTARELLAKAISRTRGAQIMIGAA
Description: HEK-293T cells were seeded on 0.1% gelatin-coated glass coverslips in 24-well plates at a density of 10^4 cells per well (50% confluence) and transiently transfected, 24 h later, with 0.5 μg of LIPA-Empty, 0.6 μg LIPA-α-syn, and 1 μg LIPA-α-syn^ΔNAC per 4 wells, to obtain similar protein expression levels in all conditions. 24 h post-transfection, cells were exposed to blue light (λ=456 nm) using UHP-T-DI-LED series Ultra High-Power LEDs (Prizmatix), at an intensity of 0.8 mW/cm^2, as measured using LPM-100 light power meter (Amuza). […]
as §1
The stability of LIPA-α-syn inclusions in the absence of light stimulation was evaluated by assessing the proportion of mCherry-positive cells having inclusions. […]
The impact of treatment with potent small molecule inhibitors of α-syn aggregation, namely baicalein and myrecitin (Masuda et al., 2006; Zhu et al., 2004), on the stability of LIPA-α-syn inclusions was next evaluated. […]

Compound	reduction in the number of cells exhibiting stable LIPA-α-syn inclusions (LIPA-α-syn aggregates)	effect on LIPA-Empty dissociation (LIPA-Empty aggregates)	effect on the proportion of cells with mCherry inclusions (LIPA-α-syn aggregates)	reduction of the proportion of cells exhibiting mCherry aggregates (LIPA-α-syn inclusions) (LIPA-α-syn aggregates; co-overexpression with LIPA-α-syn in HEK-293T cells, blue light 12 h, post-stimulation analysis, FIG. 19 and 21, n=5)
O=c1cc(-c2ccccc2)oc2cc(O)c(O)c(O)c12 [baicalein]	50%	no effect		
O=c1c(-c2ccc(O)cc2)coc2cc(O)ccc12 [daidzein]			did not affect	
O=c1c(O)c(-c2cc(O)c(O)c(O)c2)oc2cc(O)cc(O)c12 [myrecitin]	50%	no effect		
O=C1C[C@@H](c2ccc(O)cc2)Oc2cc(O)cc(O)c21 [naringenin]			did not affect	
β-syn: β-synuclein overexpressed in cells; reported to inhibit human α-syn aggregation				significant reduction
